In PubChem BioAssay AID2060897 (Molecular Pharmacology Branch, DTP, NCI, 2025):
Values belong to the compound of their own block, whether it stands above or below them.

Tested on: 966289-007-R4-J1-PDC complex spheroid viability
Test: Anticancer human tumor 966289-007-R4-J1-PDC patient-derived pancreatic adenocarcinoma cell line growth inhibition [RAS]
Conditions: for viability, T/C: stronger effect = lower value
Source text: RAS pathway inhibitors in Combinations in Complex Spheroids
A high-throughput screen of multi-cell type tumor spheroids was designed to identify active combinations of RAS pathway inhibitors and targeted small molecules. Complex spheroids include a stromal component modeled by human endothelial cells (HUVEC) and fibroblasts modeled by human mesenchymal stem cells (MSCs). The concentration ranges selected for each drug and investigational agent were based upon clinically achievable concentrations if the clinical Cmax of the agent was known.
Compounds. The drugs and investigational agents: abemaciclib (NSC768073), cobimetinib (NSC768068), divarasib (GDC6063, NSC841802), docetaxel (NSC628503), GDC-1971 (RLY-1971, NSC841576), gemcitabine (NSC613327), inavolisib (NSC800729), ipatasertib (NSC767898), KB-0742 (NSC834161), MRTX-1133 (NSC836407), osimertinib (NSC779217), RMC-4630 (NSC839698), RMC-6236 (NSC851965), RMC-6291 (NSC852671), Ro-3306 (NSC812927), sapanisertib (NSC764658), SN-38 (NSC673596), staurosporine (NSC755774), SY5609 (NSC837396), and tovorafenib (DAY101, NSC766906), were obtained from the National Cancer Institute (NCI) Developmental Therapeutics Program Chemical Repository. The FDA-approved anticancer drug set is available from the NCI Developmental Therapeutics Program. […] The stock solutions were prepared in dimethyl sulfoxide (DMSO, Sigma-Aldrich, St. Louis, MO, cat. D2650) at 800-fold the tested concentration and stored at -70 degrees C prior to their use. All drugs and investigational agents were tested over a range starting from a high concentration at or near the clinical Cmax and decreasing in half-log increments. If the clinical Cmax for an agent had not been determined, the highest concentration tested was 10 microM.
Cell Culture. All cells were maintained in an incubator at 37 degrees C and 5% CO2 with 95% humidity. The PDC lines were cultured according to standard operating procedures established by the NCI PDMR. All PDCs were thawed and cultured in Matrigel-coated flasks prepared with a working solution of 1X Ham's F-12 nutrient mix, without supplementation (Invitrogen, Waltham, MA, cat. 11765054), 100 U/mL penicillin-streptomycin (Invitrogen, cat. 15140122), and 2.5% Matrigel (Corning Inc., Corning, NY, cat. 354248) for the first three passages. The 362531-283-R-J2-PDC and 782815-120-R-J1-PDC lines were cultured in 6C/Colon 1B media, which includes advanced DMEM/F-12 (Thermo Fisher Scientific, cat. 12634028), 10 mM HEPES (Thermo Fisher Scientific, cat. 15630080), 1X GlutaMAX supplement (Thermo Fisher Scientific, cat. 35050061), 0.1 mg/mL primocin (InvivoGen, San Diego, CA, cat. ant-pm-2), 10% defined fetal bovine serum, heat inactivated (HyClone Laboratories Inc., Logan, UT, cat. SH30070.03HI), 50% L-WRN conditioned media (ATCC, cat. CRL-3276), 1.25 mM N-Acetyl-L-cysteine (Sigma-Aldrich, cat. A9165), 10 mM nicotinamide (Sigma-Aldrich, cat. N0636), 1X B-27 supplement (Thermo Fisher Scientific, cat. 17504044), 1X N-2 supplement (Thermo Fisher Scientific, cat. 17502048), 50 ng/mL human EGF (Thermo Fisher Scientific, cat. PHG0311), and 10 microM Y-27632 dihydrochloride (Tocris Bioscience, cat. 1254). The K12877-001-R-J1-PDC line was cultured in 6I media, which includes all 6C/Colon 1B media plus 10 ng/mL human FGF-10 (PeproTech, cat. 100-26), 1 ng/mL human FGF-2 (PeproTech, cat. 100-18B), 1 µM prostaglandin E2 (Tocris Bioscience, cat. 2296), […] hydrocortisone (Sigma-Aldrich, cat. H4001), and […] bovine insulin (Sigma-Aldrich, cat. I6634). The K86415-001-R-J1-PDC line was cultured in 6D media, which includes all 6C/Colon 1B media components minus the L-WRN conditioned media. The 485176-168-R4-J1-PDC was cultured in PANC media, which includes all 6C/Colon 1B media plus 100 ng/mL human FGF-10 (PeproTech, cat. 100-26), 500 nM SB-431542 (Selleckchem, cat. S1067), and 10 nM gastrin (Tocris Bioscience, cat. 3006). […]
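Also: spheroids exposed to agents for one week before readout.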
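For viability, T/C in this document: percent viability relative to DMSO vehicle control wells as 100%.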

- IC50 (curve of compound): < 0.0316 µM
Structure (SMILES): CC(=O)OC12COC1CC(O)C1(C)C(=O)C(O)C3=C(C)C(OC(=O)C(O)C(NC(=O)OC(C)(C)C)c4ccccc4)CC(O)(C(OC(=O)c4ccccc4)C21)C3(C)C (stereo unspecified)
- viability, T/C (compound 0.0316 µM): 7.82% [middle of 4 runs]
- viability, T/C (compound 0.1 µM): 14.1% [middle of 4 runs]
- viability, T/C (compound 0.316 µM): 15.4% [middle of 4 runs]
- viability, T/C (compound 1 µM): 19.7% [middle of 4 runs]
- viability, T/C (compound 3.16 µM): 38.3% [middle of 4 runs]
- viability, T/C (compound 10 µM): 67% [middle of 4 runs]

- IC50 (curve of first compound, second compound 0.0316 µM): 6.4 µM
- IC50 (curve of first compound, second compound 0.1 µM): 6.04 µM
- IC50 (curve of first compound, second compound 0.316 µM): 5.61 µM
- IC50 (curve of first compound, second compound 1 µM): 6.95 µM
- IC50 (curve of first compound, second compound 3.16 µM): 5.64 µM
- IC50 (curve of first compound, second compound 10 µM): 2.76 µM
Structure (SMILES): CC(C)NCC(C(=O)N1CCN(c2ncnc3c2C(C)CC3O)CC1)c1ccc(Cl)cc1 (stereo unspecified) + C#Cc1c(F)ccc2cc(O)cc(-c3ncc4c(N5CC6CCC(C5)N6)nc(OCC56CCCN5CC(F)C6)nc4c3F)c12
- viability, T/C (second compound 0.0316 µM, first compound 0.0316 µM): 98.7%
- viability, T/C (second compound 0.0316 µM, first compound 0.1 µM): 111%
- viability, T/C (second compound 0.0316 µM, first compound 0.316 µM): 108%
- viability, T/C (second compound 0.0316 µM, first compound 1 µM): 111%
- viability, T/C (second compound 0.0316 µM, first compound 3.16 µM): 66.9%
- viability, T/C (second compound 0.0316 µM, first compound 10 µM): 39.3%
- viability, T/C (second compound 0.1 µM, first compound 0.0316 µM): 103%
- viability, T/C (second compound 0.1 µM, first compound 0.1 µM): 109%
- viability, T/C (second compound 0.1 µM, first compound 0.316 µM): 124%
- viability, T/C (second compound 0.1 µM, first compound 1 µM): 101%
- viability, T/C (second compound 0.1 µM, first compound 3.16 µM): 66.4%
- viability, T/C (second compound 0.1 µM, first compound 10 µM): 37.4%
- viability, T/C (second compound 0.316 µM, first compound 0.0316 µM): 106%
- viability, T/C (second compound 0.316 µM, first compound 0.1 µM): 103%
- viability, T/C (second compound 0.316 µM, first compound 0.316 µM): 128%
- viability, T/C (second compound 0.316 µM, first compound 1 µM): 102%
- viability, T/C (second compound 0.316 µM, first compound 3.16 µM): 66.6%
- viability, T/C (second compound 0.316 µM, first compound 10 µM): 33.6%
- viability, T/C (second compound 1 µM, first compound 0.0316 µM): 104%
- viability, T/C (second compound 1 µM, first compound 0.1 µM): 106%
- viability, T/C (second compound 1 µM, first compound 0.316 µM): 111%
- viability, T/C (second compound 1 µM, first compound 1 µM): 117%
- viability, T/C (second compound 1 µM, first compound 3.16 µM): 74.6%
- viability, T/C (second compound 1 µM, first compound 10 µM): 38.6%
- viability, T/C (second compound 3.16 µM, first compound 0.0316 µM): 116%
- viability, T/C (second compound 3.16 µM, first compound 0.1 µM): 106%
- viability, T/C (second compound 3.16 µM, first compound 0.316 µM): 114%
- viability, T/C (second compound 3.16 µM, first compound 1 µM): 96.7%
- viability, T/C (second compound 3.16 µM, first compound 3.16 µM): 67.5%
- viability, T/C (second compound 3.16 µM, first compound 10 µM): 33%
- viability, T/C (second compound 10 µM, first compound 0.0316 µM): 110%
- viability, T/C (second compound 10 µM, first compound 0.1 µM): 111%
- viability, T/C (second compound 10 µM, first compound 0.316 µM): 125%
- viability, T/C (second compound 10 µM, first compound 1 µM): 103%
- viability, T/C (second compound 10 µM, first compound 3.16 µM): 43%
- viability, T/C (second compound 10 µM, first compound 10 µM): 26.1%

- IC50 (compound alone, run of 05/20/2024): > 0.3 µM
Structure (SMILES): CCn1c(-c2cccnc2C(C)OC)c2c3cc(ccc31)N1CCOC(CC(NC(=O)C(C(C)C)N(C)C(=O)C3(F)CCN(C(=O)C#CC(C)(C)N(C)C)CC3)C(=O)N3CCCC(N3)C(=O)OCC(C)(C)C2)C1 (stereo unspecified)
- viability, T/C (compound 0.0949 µM): 83.6% [middle of 8 runs]
